From paper PMC11022729 (Advanced Science, 2024)
Structures can show the parent of a compound that is named as a salt.

Columns and labels:
[1] = biological target: T1, human D3 receptor (Homo sapiens, UniProt P35462); experiment: [3H]-spiperone competition binding assay, D3; details: mean [CI 95%]
T1 construct: expressed in transfected cells; host or cells: CHO
Experimental: (§1) CHO cells stably expressing human dopamine D2short (D2R) and D3 receptor (D3R) were washed and harvested using PBS. […] The cell membrane homogenate was centrifuged (20 000 × g, 20 min, 4 °C), and the resulting cell pellet was resuspended in the binding buffer. Crude membrane extracts were kept at −80 °C until use. Before starting the experiments, cell membranes were thawed, homogenized by sonication (3 × 10 s), and stored in an ice‐cold binding buffer. […] Assays were performed at least in triplicate with appropriate concentrations ranging from 0.01 nM to 100 µM of the test compound. Non‐specific binding was determined using 10 µM haloperidol. By filtering through GF/B filters pretreated with 0.3% (m/v) polyethyleneimine, the bound radioligand was separated from free radioligand using a cell harvester. Radioactivity was measured using liquid scintillation counting. Data were evaluated using the GraphPad Prism 9 software (San Diego, CA, USA) with a nonlinear regression fit.

[2] = biological target: T2, human D2S receptor (Homo sapiens, UniProt P14416); experiment: [3H]-spiperone competition binding assay, D2; details: mean [CI 95%]
T2 construct: expressed in transfected cells; host or cells: CHO
T2 sequence (P14416 1-414 isoform P14416-2): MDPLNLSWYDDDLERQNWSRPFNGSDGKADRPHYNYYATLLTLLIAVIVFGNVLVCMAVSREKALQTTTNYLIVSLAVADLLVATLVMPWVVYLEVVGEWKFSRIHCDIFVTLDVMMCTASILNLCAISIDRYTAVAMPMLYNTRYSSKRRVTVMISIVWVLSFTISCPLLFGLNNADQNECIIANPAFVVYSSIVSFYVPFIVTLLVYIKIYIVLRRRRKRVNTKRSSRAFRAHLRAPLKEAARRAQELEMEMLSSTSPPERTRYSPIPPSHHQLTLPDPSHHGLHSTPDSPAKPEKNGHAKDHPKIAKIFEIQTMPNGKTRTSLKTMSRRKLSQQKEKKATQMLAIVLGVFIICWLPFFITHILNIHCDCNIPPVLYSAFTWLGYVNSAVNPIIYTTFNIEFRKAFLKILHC
Experimental: as §1

[3] = biological target: T3, human Slack (Homo sapiens, UniProt Q5JUK3); experiment: FluxOR potassium ion channel assay in HEK-Slack cells; format: cell-based; details: for EC50: HEK-Slack cells, Na+-free assay buffer, mean (95% confidence interval)
T3 construct: host or cells: HEK293
T3 sequence (Q5JUK3 1-1230): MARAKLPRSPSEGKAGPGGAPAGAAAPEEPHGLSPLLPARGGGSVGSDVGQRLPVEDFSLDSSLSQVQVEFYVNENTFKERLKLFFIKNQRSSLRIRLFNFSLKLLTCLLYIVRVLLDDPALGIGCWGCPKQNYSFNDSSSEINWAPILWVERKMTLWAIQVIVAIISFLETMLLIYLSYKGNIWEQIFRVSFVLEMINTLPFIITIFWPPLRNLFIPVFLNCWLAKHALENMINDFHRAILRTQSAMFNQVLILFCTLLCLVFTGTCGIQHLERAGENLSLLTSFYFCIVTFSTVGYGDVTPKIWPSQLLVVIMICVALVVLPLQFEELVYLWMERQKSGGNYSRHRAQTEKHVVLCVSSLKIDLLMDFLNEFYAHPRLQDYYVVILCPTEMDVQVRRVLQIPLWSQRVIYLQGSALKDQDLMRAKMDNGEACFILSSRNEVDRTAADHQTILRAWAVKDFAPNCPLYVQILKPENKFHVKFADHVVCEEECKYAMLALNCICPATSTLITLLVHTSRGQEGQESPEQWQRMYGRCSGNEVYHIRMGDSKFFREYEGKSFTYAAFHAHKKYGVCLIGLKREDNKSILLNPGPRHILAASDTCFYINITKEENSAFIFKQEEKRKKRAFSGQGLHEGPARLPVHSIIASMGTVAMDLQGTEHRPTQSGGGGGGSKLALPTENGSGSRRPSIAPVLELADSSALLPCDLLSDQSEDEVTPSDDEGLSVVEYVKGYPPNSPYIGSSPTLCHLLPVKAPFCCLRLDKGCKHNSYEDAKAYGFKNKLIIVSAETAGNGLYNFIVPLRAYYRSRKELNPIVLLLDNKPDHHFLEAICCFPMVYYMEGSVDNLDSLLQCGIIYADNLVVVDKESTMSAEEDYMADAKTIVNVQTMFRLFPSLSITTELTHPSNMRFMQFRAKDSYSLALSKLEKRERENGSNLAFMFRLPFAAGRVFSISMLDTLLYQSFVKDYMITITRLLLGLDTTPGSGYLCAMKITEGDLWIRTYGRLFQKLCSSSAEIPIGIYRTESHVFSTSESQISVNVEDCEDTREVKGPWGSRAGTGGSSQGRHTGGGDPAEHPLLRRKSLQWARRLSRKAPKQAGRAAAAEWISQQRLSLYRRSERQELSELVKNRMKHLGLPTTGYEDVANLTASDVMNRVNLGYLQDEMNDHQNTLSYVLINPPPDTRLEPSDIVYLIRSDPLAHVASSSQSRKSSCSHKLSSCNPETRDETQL
Experimental: The functional activity of this series of compounds against human Slack was determined using a cell‐based FluxOR potassium ion channel assay in cultured HEK293 cells stably expressing human Slack (herein referred to as HEK‐Slack cells) and a Na^+‐free assay buffer to prevent compound‐independent Slack activation by monovalent cations.^[ [14], [24] ^] […] Of the 114 newly synthesized compounds, 31 acted as Slack activators to varying extents. Accordingly, we deemed eight of these as the most interesting candidates.
To determine the Slack‐activating efficacy and potency of the novel compounds, a commercial FluxOR potassium ion channel assay (#10 017; Invitrogen) was used. HEK‐Slack cells were plated at a density of 50 000 cells per well on a poly‐D‐lysine coated (75 µg mL^−1, Sigma–Aldrich) 96‐well, black‐walled microplate with clear bottom (#655 090; Greiner Bio‐One) in DMEM (100 µL per well) containing 10% FBS and 1% penicillin/streptomycin 24 h prior to assaying. In the initial experiments shown in Figure S3A–F (Supporting Information), HEK‐Slack cells were plated at a density of 100 000 cells/well 48 h prior to the assay. On the day of the experiment, the cells were loaded with FluxOR dye according to the manufacturer's protocol. A Na^+‐free assay buffer, adjusted to pH 7.4 with KOH, containing 140 mM choline chloride, 5 mM KCl, 2 mM CaCl2, 2 mM MgSO4, 10 mM HEPES, and 5.55 mM glucose was used. To reduce background fluorescence, all assay components were complemented with a 10% BackDrop Background Suppressor (#B10511; Invitrogen).
All compounds were prepared as a 333 mM stock in DMSO and diluted on the experimental day to a final concentration of 100, 50, 25, 12.5, 6.25, 3.125, or 1.5625 µM in an assay buffer with DMSO adjusted to 0.03%. Before treatment, the cells were washed, and the medium was exchanged for the assay buffer. In a total volume of 90 µL per well, the cells were then incubated for 30 min at 37 °C with compounds at the indicated concentrations, or 0.03% DMSO alone as the vehicle. […] Fluorescence was measured using an Infinite M200 microplate reader (Tecan) with excitation at 485 nm (9 nm bandwidth) and emission at 525 nm (20 nm bandwidth) in the bottom read mode. First, the baseline fluorescence of the individual wells was established. Thereafter cells were stimulated with 20 µL Tl2SO4 (5 mM) solution injected at 100 µL s^−1, and fluorescence was further recorded for 100 s. Assays were run in triplicate. For all time points, the ratio of fluorescence to baseline fluorescence was calculated first for individual wells, and the average was then used.
Dose‐response curves comprising six concentrations were obtained in triplets using fluorescence/fluorescenceBaseline ratios at the 100th s.

[4] = system: mice; experiment: Pulse oximetry in conscious, freely moving mice; details: 10 mg kg−1 i.p., observation period of 30 min
Experimental: To measure cardiovascular function, a pulse oximeter (MouseOX Plus, Starr Life Sciences Corp.) was used in conscious, freely moving mice. After three consecutive days of habituating the mice to the collar clip for at least 30 min, baseline measurements were performed. […] All the datasets were sampled at 1 Hz, error‐corrected according to the manufacturer's instructions, and averaged over 300 s for each time point.

[5] = system: HEK293 cells; experiment: Live-cell high-content cytotoxicity multiplex assay; format: cell-based; details: 100 µM, 6 h
Experimental: To explore whether the compounds affected general cell functions, we performed a live‐cell high‐content assay that allowed for the simultaneous investigation of cellular viability, compound precipitation, and maintenance of membrane integrity and mitochondrial mass.^[ [25] ^]
To assess cell viability, a live cell high‐content screen was performed in HEK293T cells as described previously.^[ [25] ^] In brief, HEK293T cells (ATCC CRL‐1573) were cultured in DMEM plus L‐glutamine (high glucose) supplemented by 10% FBS (Gibco) and penicillin/streptomycin (Gibco). Cells were seeded at a density of 1500 cells/well in 384 well plates in culture medium (cell culture microplate, PS, f‐bottom, µClear, 781 091; Greiner). Cells were stained simultaneously with 60 nM Hoechst33342 (Thermo Scientific), 75 nM Mitotracker red (Invitrogen), 0.3 µL per well annexin V Alexa Fluor 680 conjugate (Invitrogen), and 25 nL per well BioTracker 488 green microtubule cytoskeleton dye (EMD Millipore). The fluorescence and cellular shape were measured after 6 h of compound exposure using a CQ1 high‐content confocal microscope (Yokogawa). […] Images were analyzed using the CellPathfinder software (Yokogawa). Cells were detected and gated in different cell populations as described previously^[ [47] ^] using a machine learning‐based algorithm. Briefly, compound precipitation was detected as Hoechst high‐intensity objects. […]

[6] = Metabolic stability assay in rat liver microsomes; format: in vitro ADME; details: 10 µM, 15, 30 and 60 min
Experimental: We next assessed the metabolic stability of these compounds (10 µM) in rat liver microsomes (Figure 2A). […] Therefore, we assumed that the occupation of metabolically labile sites at the aromatic core and the reduction in electron density at the oxidizable nitrogen atom of the piperazine ring might increase metabolic stability. Indeed, both the introduction of fluorine at R^2 and the introduction of an electron‐withdrawing carboxylic acid linker at R^3 improved metabolic stability. The substitution of chlorine with a trifluoromethyl group at R^1 was also beneficial. In contrast, homopiperazine and hydroxy linkers were metabolically labile.
The solubilized test compound (5 µL, final concentration 10 µM) was preincubated at 37 °C in 432 µL phosphate buffer (0.1 M, pH 7.4) together with 50 µL NADPH regenerating system (30 mM glucose‐6‐phosphate, 4 U mL^−1 glucose 6‐phosphate dehydrogenase, 10 mM NADP, and 30 mM MgCl2). After 5 min, the reaction started upon the addition of 13 µL of microsome mix from the liver of Sprague‐Dawley rats (Invitrogen; 20 mg protein per mL in 0.1 M phosphate buffer) in a shaking water bath at 37 °C. The reaction was stopped by adding 500 µL ice‐cold methanol at 0, 15, 30, and 60 min. The samples were centrifuged at 5000 × g for 5 min at 4 °C and the test compound was quantified from the supernatants by HPLC; the composition of the mobile phase was adapted to the test compound in a range of MeOH 40−90% and water (0.1% formic acid) 10−60%. Flow rate: 1 mL min^−1; stationary phase: Purospher STAR, RP18, 5 µm, 125 × 4; precolumn: Purospher STAR, RP18, 5 µm, 4 × 4; detection wavelength: 254 and 280 nm; injection volume: 50 µL. Control samples were used to evaluate the stability of the test compounds in the reaction mixture. The first control was without NADPH, which is needed for the enzymatic activity of the microsomes, the second control was with inactivated microsomes (incubated for 20 min at 90 °C), and the third control was without the test compound (to determine the baseline). The amounts of test compounds were quantified using an external calibration curve.

T1 sequence (P35462 whole entry): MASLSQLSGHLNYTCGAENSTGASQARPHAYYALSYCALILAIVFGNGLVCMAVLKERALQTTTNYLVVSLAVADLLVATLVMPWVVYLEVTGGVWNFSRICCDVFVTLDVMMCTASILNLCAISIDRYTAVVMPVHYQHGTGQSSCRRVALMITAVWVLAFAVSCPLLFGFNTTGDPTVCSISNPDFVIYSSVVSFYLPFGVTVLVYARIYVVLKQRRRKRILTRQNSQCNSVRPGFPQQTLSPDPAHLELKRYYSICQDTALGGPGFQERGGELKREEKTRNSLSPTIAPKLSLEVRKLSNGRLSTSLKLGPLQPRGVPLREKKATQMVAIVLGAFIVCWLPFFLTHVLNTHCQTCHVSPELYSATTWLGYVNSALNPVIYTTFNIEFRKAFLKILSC

Compound	Ki [1]	Ki [2]	Emax [3]	EC50 [3]	breath rate [4]	heart rate [4]	compound precipitation [5]	metabolic stability [6]
CN1CCCN(C2=Nc3ccccc3Oc3ccc(C(F)(F)F)cc32)CC1 [Compound 2]	0.0624 µM	0.0828 µM	63.1%	3.2 µM	–	–	–	–
O=C(O)COCCN1CCCN(C2=Nc3ccccc3Oc3ccc(C(F)(F)F)cc32)CC1 [Compound 8]	0.421 µM	0.134 µM	186%	50.9 µM	–	–	–	–
CN1CC[C@]23c4c5ccc(O)c4O[C@H]2[C@@H](O)C=C[C@H]3[C@H]1C5 [morphine, morphine sulfate pentahydrate, reference compound]	–	–	–	–	reduced	reduced	–	–
CN1CCN(C2=Nc3ccccc3Oc3ccc(C(F)(F)F)cc32)CC1 [Compound 1]	0.0122 µM	0.0036 µM	114%	6.3 µM	–	–	compound precipitation was only detected	–
O=C(O)COCCN1CCN(C2=Nc3ccccc3Oc3ccc(C(F)(F)F)cc32)CC1 [Compound 7]	0.0407 µM	0.0274 µM	177%	62.5 µM	–	–	–	highest metabolic stabilities
OCCOCCN1CCN(C2=Nc3ccccc3Sc3ccc(Cl)cc32)CC1 [Compound 5]	0.0634 µM	0.0449 µM	87.4%	30 µM	–	–	–	–
CN1CCN(C2=Nc3cc(F)ccc3Oc3ccc(C(F)(F)F)cc32)CC1 [Compound 3]	0.0226 µM	0.00289 µM	199%	41.5 µM	–	–	–	–
OCCN1CCN(C2=Nc3ccccc3Oc3ccc(Cl)cc32)CC1 [Compound 4]	0.176 µM	0.05 µM	223%	26 µM	–	–	–	–
